# Measurements from PMC7822176, “Pursuing the Complexity of Alzheimer’s Disease: Discovery of Fluoren-9-Amines as Selective Butyrylcholinesterase Inhibitors and N-Methyl-D-Aspartate Receptor Antagonists” (Biomolecules, 2020).
# Where a name gives a salt, the structure may show the parent alone. Read-outs that look alike come from different tables or passages of the source.
# Experiments:
# hCMEC/D3 cell monolayer = experiment: in vitro
# Procedure: (§1) The D3 assay evaluates the ability of compounds to diffuse from the donor compartment through the D3/hCMEC cell membrane into the acceptor compartment. The D3 cells were seeded on a PET membrane (area 1.12 cm^2) with 3-µm pores of the 12-well plates with 12-mm inserts. […] The donor solution (750 µL) was added to the donor compartment (insert), and the same volume of Opti-MEM was added into the acceptor. The concentration of the drug in both compartments was measured by UV-VIS spectrophotometry in 5, 15, 30, and 60 min of incubation in triplicates. The apparent permeability coefficient (Papp) was calculated from the concentration ratios. Tightness of the D3 monolayer was conducted by the fluorescein isothiocyanate (FITC) test after each experiment. […] (1) Papp= dC/dt × Vr/A × C0 • A: area of the well/cell monolayer, • dC/dt: amount in the receiver compartment in given time, • Vr: volume of the receiver compartment, and • C0: the initial concentration of tested compounds.
# in vitro = conditions: human
# Procedure: as §1
# GluN1/GluN2B receptors = molecular target: T1, GluN1/GluN2B receptors (Homo sapiens, UniProt Q05586+Q13224); experiment: cell-based; conditions: for inhibition at 10 µM: HEK293, read-out: RI (%) ± SEM GluN1/GluN2B
# T1 construct: expressed in transfected cells; host or cells: HEK293
# Procedure: (§2) The cells grown in a 24-well plate were put in Opti-MEM I media containing a mixture of 0.9 µL of MATra-A Reagent (IBA) and 900 ng of DNA vectors carrying the human versions of the GluN1-1a (GluN1), GluN2A, or GluN2B subunits and green fluorescent protein (GFP; all vectors were added in equal ratio). The cells were placed on a strong magnet plate for 30 min and then trypsinized; resuspended in Opti-MEM I containing 1% FBS, 20-mM MgCl2, and 3-mM kynurenic acid (to inhibit the NMDAR-induced excitotoxicity); and plated on poly-L-lysine-coated glass coverslips. The electrophysiological experiments were executed 24–48 h after transfection.
# (§3) Whole-cell patch-clamp recordings were conducted at room temperature on the GFP-positive HEK293 cells using an Axopatch 200B amplifier (Molecular Devices, San Jose, CA, USA); the series resistance compensation was >80% for all cells. […] The WAS02 application system, which can reach the solution exchange time around the recorded cell of 10–20 ms, was used to apply the extracellular solution (ECS).
# GluN1/GluN2A receptors = molecular target: T2, GluN1/GluN2A receptors (Homo sapiens, UniProt Q05586+Q12879); experiment: cell-based; conditions: for inhibition at 10 µM: HEK293, read-out: RI (%) ± SEM GluN1/GluN2A
# T2 construct: expressed in transfected cells; host or cells: HEK293
# Procedure: as §2, §3
# [1] = MTT cell viability assay, CHO-K1; assay type: cell-based; conditions: Chinese hamster, CHO-K1 cells, 24 h exposure, mean of three independent measurements, read-out: IC50 ± SEM CHO-K1 cell viability
# Procedure: Standard MTT assay (3-(4,5-dimethylthiazol-2-yl)-2,5-diphenyltetrazolium bromide; Sigma Aldrich, Prague, Czech Republic) was used according to the manufacturer’s protocols on the CHO-K1 (Chinese hamster ovary, ECACC, Salisbury, UK) and hCMEC/D3 (Sigma Aldrich, St. Louis, MO, USA). The cells were cultured according to recommended conditions and seeded in a density of 8000 cells per well, as described previously. […] CHO-K1 cells were exposed to serially diluted tested compounds for 24 h. Then, the medium was replaced by a fresh medium containing 0.5 mg/mL of MTT, and the cells were allowed to produce formazan for another approximately 3 h under surveillance. Thereafter, the medium with MTT was removed, and crystals of formazan were dissolved in DMSO (100 µL/well; PENTA s.r.o., Prague, Czech Republic). Cell viability was assessed spectrophotometrically by the amount of formazan produced. The absorbance was measured at 570 nm with a 650-nm reference wavelength on Synergy HT (BioTek, Winooski, VT, USA). The IC50 value (half-maximal inhibitory concentration) was calculated from the control-subtracted triplicates using nonlinear regression (four parameters) by GraphPad Prism 7.03 software (GraphPad Software Inc., San Diego, CA, USA) for the CHO-K1 cell line, and for hCMEC/D3 cells, the cell viability was expressed as the % relative to the untreated control. Final IC50 and SEM (standard error of the mean) values were obtained as a mean of three independent measurements.
# hBChE = molecular target: T3, hBChE (Homo sapiens, UniProt P06276); experiment: biochemical; assay type: biochemical
# T3 construct: made in house
# Procedure: The human recombinant BChE and AChE were prepared at the Department of Toxicology and Military Pharmacy (Faculty of Military Health Sciences, Hradec Kralove, Czech Republic). 5,5′-dithiobis(2-nitrobenzoic acid) (Ellman’s reagent, DTNB), phosphate buffer (PB, pH 7.4), acetylthiocholine (ATC), and butyrylthiocholine (BTC) were purchased from Sigma-Aldrich, Prague, Czech Republic. For measuring purposes, polystyrene Nunc 96-well microplates with a flat bottom shape (Thermo Fisher Scientific, Waltham, MA, USA) were utilized. All the assays were carried out in 0.1-M KH2PO4/K2HPO4 buffer, pH 7.4. Enzyme solutions were prepared at 2.0 units/mL in 2-mL aliquots. […] Tested compounds were preincubated for 5 min. The reaction was started by the immediate addition of 20 µL of the substrate. […] Each concentration was assayed in triplicate. Software GraphPad Prism 5 (San Diego, CA, USA) was used for the statistical data evaluation.
# [2] = final prediction from Papp correlated to reference drugs
# [3] = mean of at least three experiments, read-out: IC50 ± SEM hBChE
# T1 sequence (Q13224 27-1484, other chains not shown): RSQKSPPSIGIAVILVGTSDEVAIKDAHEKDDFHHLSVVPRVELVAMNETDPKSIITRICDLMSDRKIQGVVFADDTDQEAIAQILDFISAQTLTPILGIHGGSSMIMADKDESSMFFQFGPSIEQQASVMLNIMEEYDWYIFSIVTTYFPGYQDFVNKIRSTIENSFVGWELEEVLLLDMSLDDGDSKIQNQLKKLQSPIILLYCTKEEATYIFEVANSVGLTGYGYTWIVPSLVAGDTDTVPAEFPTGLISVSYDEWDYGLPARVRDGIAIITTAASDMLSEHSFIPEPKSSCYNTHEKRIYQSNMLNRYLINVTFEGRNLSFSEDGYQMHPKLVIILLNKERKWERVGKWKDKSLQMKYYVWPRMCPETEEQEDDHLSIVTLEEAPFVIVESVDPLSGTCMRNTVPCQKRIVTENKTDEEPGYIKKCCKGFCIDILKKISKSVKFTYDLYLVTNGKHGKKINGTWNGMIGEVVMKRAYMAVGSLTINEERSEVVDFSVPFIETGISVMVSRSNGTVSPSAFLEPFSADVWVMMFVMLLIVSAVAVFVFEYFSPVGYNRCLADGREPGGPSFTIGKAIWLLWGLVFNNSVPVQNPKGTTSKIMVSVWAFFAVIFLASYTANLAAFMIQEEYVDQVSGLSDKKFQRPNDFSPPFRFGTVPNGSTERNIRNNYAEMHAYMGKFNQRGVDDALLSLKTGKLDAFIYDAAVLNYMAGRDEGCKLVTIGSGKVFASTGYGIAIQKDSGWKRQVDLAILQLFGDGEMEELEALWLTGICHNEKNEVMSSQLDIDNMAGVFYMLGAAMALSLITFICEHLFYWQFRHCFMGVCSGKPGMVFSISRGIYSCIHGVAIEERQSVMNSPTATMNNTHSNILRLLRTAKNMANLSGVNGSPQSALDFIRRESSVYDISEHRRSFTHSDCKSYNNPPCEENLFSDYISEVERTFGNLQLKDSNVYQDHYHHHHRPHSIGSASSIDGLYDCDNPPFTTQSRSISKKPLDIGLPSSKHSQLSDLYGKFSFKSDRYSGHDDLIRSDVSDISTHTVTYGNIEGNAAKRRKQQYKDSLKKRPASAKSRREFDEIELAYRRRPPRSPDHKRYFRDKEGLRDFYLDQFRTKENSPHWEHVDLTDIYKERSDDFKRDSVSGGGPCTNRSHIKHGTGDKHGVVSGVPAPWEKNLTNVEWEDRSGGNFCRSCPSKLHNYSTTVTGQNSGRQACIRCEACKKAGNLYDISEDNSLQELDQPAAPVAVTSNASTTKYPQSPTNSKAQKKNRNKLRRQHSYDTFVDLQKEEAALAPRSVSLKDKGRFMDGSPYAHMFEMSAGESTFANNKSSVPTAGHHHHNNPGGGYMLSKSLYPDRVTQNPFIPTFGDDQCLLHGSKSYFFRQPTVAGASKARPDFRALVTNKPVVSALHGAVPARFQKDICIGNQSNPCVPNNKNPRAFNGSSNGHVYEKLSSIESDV
# T2 sequence (Q12879 23-1464, other chains not shown): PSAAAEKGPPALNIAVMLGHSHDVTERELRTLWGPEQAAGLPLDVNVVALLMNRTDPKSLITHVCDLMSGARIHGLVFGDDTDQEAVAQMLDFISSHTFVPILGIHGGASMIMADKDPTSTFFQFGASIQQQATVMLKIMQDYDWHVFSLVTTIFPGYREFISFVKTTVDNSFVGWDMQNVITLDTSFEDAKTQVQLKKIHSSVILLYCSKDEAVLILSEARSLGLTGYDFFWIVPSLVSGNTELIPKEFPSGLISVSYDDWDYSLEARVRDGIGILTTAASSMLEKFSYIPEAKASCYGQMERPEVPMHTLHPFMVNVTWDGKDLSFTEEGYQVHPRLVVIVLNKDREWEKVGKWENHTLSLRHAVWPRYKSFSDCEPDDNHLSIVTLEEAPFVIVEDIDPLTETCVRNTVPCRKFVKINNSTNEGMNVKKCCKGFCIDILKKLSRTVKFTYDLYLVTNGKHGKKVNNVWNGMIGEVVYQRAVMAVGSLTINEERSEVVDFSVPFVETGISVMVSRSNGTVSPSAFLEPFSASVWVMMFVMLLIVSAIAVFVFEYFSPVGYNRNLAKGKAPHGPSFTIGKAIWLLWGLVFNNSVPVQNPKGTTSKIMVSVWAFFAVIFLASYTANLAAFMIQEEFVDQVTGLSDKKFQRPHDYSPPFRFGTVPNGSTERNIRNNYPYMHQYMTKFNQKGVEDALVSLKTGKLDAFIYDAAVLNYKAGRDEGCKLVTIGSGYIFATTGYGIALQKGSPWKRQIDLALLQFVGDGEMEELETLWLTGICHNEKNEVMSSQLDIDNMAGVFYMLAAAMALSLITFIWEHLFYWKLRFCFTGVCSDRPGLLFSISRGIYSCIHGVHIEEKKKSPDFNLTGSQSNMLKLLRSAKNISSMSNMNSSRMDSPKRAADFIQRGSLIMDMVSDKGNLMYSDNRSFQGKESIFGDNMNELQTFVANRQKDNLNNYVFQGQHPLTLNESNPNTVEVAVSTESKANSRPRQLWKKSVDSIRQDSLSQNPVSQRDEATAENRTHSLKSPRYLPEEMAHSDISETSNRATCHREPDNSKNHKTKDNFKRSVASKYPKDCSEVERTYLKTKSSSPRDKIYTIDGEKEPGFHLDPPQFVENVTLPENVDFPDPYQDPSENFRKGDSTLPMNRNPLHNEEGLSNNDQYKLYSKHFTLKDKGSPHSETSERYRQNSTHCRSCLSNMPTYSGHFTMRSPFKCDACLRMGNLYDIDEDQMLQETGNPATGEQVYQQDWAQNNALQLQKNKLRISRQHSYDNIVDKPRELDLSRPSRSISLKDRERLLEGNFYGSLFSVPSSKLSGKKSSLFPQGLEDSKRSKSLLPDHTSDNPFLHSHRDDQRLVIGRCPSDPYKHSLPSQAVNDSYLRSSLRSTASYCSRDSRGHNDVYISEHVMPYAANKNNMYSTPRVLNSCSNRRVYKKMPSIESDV
# T3 sequence (P06276 29-602): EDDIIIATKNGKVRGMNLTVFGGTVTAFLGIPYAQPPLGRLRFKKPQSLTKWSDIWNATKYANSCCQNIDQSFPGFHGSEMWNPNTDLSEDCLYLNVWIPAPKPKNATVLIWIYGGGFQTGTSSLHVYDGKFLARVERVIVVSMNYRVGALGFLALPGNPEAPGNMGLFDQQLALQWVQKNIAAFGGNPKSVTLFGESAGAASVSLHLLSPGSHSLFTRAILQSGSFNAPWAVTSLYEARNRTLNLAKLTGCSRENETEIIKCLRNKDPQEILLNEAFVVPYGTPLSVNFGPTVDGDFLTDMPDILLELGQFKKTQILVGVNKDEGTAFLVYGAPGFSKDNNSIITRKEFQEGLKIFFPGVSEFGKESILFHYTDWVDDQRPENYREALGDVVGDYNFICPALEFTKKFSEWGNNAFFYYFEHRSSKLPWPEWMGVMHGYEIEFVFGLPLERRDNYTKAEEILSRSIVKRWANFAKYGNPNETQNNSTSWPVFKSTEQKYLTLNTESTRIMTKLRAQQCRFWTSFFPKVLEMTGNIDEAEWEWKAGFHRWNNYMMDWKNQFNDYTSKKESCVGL
SMILES,inhibition at 10 µM (GluN1/GluN2B receptors),inhibition at 10 µM (GluN1/GluN2A receptors),IC50 at 24 h [1],IC50 (hBChE; [3]),further results
"Cc1cc(=O)n(-c2ccccc2)n1C [Antipyrine, reference compound]",,,,,CNS (+/−) (hCMEC/D3 cell monolayer; [2]): CNS +; Papp (in vitro): 17.2 ± 1.82 ×10⁻⁶ cm/s
"CC(C)NC1c2ccccc2-c2ccccc21 [Compound 3a, N-Propan-2-yl-9H-fluoren-9-amine hydrochloride]",25 ± 1.82%,33.3 ± 1.66%,387 ± 32 µM,,
"CNC1c2ccccc2-c2ccccc21 [Compound 3b, N-Methyl-9H-fluoren-9-amine hydrochloride]",18 ± 0.78%,36.2 ± 2.16%,427 ± 12 µM,8.91 ± 0.31 µM,
"c1ccc2c(c1)-c1ccccc1C2NC1CC1 [Compound 3d, N-Cyclopropyl-9H-fluoren-9-amine hydrochloride]",14.3 ± 0.35%,26.6 ± 0.85%,353 ± 32 µM,6.42 ± 0.22 µM,
"c1ccc2c(c1)-c1ccccc1C2N1CCCCC1 [Compound 3f, 1-(9H-fluoren-9-yl)piperidine hydrochloride]",19.4 ± 2.65%,33 ± 1.96%,872 ± 10 µM,2.13 ± 0.06 µM,
"COCCNC1c2ccccc2-c2ccccc21 [Compound 3g, N-(2-methoxyethyl)-9H-fluoren-9-amine hydrochloride]",6.76 ± 1%,18.7 ± 1.98%,738 ± 1 µM,2.56 ± 0.11 µM,
"CCNC1c2ccccc2-c2ccccc21 [Compound 3h, N-Ethyl-9H-fluoren-9-amine hydrochloride]",17.5 ± 2.46%,26.9 ± 2.14%,417 ± 16 µM,6.58 ± 0.19 µM,
"CCN(CC)C1c2ccccc2-c2ccccc21 [Compound 3i, N,N-Diethyl-9H-fluoren-9-amine hydrochloride]",20.1 ± 2.82%,25.7 ± 1.92%,266 ± 3 µM,5.38 ± 0.11 µM,
"CN1CCN(C2c3ccccc3-c3ccccc32)CC1 [Compound 3j, 1-(9H-fluorene-9-yl)-4-methylpiperazine dihydrochloride]",21.9 ± 2.1%,29.1 ± 2.85%,259 ± 12 µM,,IC50 (hBChE): 23.5 ± 0.8 µM
"CCN1CCN(C2c3ccccc3-c3ccccc32)CC1 [Compound 3k, 1-(9H-fluorene-9-yl)-4-ethylpiperazine dihydrochloride]",19.1 ± 1.48%,32.1 ± 1.01%,239 ± 35 µM,12.8 ± 0.3 µM,
"c1ccc2c(c1)-c1ccccc1C2N1CCOCC1 [Compound 3l, 4-(9H-fluorene-9-yl)morpholine hydrochloride]",11.6 ± 0.52%,14.9 ± 1.76%,> 800 µM,54.7 ± 1.9 µM,
"c1ccc2c(c1)-c1ccccc1C2N1CCCC1 [Compound 3o, 1-(9H-fluoren-9-yl)pyrrolidine hydrochloride]",32.4 ± 2.99%,27.8 ± 1.74%,413 ± 15 µM,1.8 ± 0.06 µM,
"CC12CC3CC(C)(C1)CC(N)(C3)C2 [Memantine, memantine, reference compound]",,,,,h 40 mV GluN1/GluN2B (Hill coefficient) (GluN1/GluN2B receptors): 0.84 ± 0.04; h −60 mV GluN1/GluN2B (Hill coefficient) (GluN1/GluN2B receptors): 1.04 ± 0.03; h 40 mV GluN1/GluN2A (Hill coefficient) (GluN1/GluN2A receptors): 1.16 ± 0.05; h −60 mV GluN1/GluN2A (Hill coefficient) (GluN1/GluN2A receptors): 1.04 ± 0.06
"O/N=C/c1cc[n+](COC[n+]2ccc(/C=N/O)cc2)cc1 [Obidoxime, reference compound]",,,,,CNS (+/−) (hCMEC/D3 cell monolayer; [2]): CNS −; Papp (in vitro): 14.3 ± 0.52 ×10⁻⁶ cm/s
"CC(C)NCC(O)COc1cccc2ccccc12 (stereo not shown) [Propranolol, reference compound]",,,,,CNS (+/−) (hCMEC/D3 cell monolayer; [2]): CNS +; Papp (in vitro): 23.1 ± 2.06 ×10⁻⁶ cm/s
"CCN(C)C(=O)Oc1cccc([C@H](C)N(C)C)c1 [Rivastigmine, reference compound]",,,,,CNS (+/−) (hCMEC/D3 cell monolayer): CNS +; Papp (in vitro): 28.6 ± 4.64 ×10⁻⁶ cm/s
